Results from US9682938B2, “Pyrazolone derivatives as nitroxyl donors” (Cardioxyl Pharmaceuticals, Inc., priority 2014, dated 2017).
Values joined by “and” are separate entries in the source; they are usually repeats but may differ in a detail not shown here. Equal entries are not always repeated.

Tests used:
[1] = Nitroxyl production via 1H NMR protocol using TXPTS (NMR half-lives); assay type: physicochemical; settings: phosphate buffer containing TXPTS (HNO trap); pH 7.4, 0.25 M phosphate buffer, 5 mM TXPTS, 1 mM compound, 37° C., spectra over 8 hours; read-out: NMR-T1/2
Method: The ^1H NMR procedure used was based on an HPLC protocol developed by S. Bruce King and coworkers (Reisz et al., Org. Lett. 11:2719-2721 (2009), Reisz et al., J. Am. Chem. Soc. 133:11675-11685 (2011) and Guthrie et al., J. Org. Chem. 80:1338-1348 (2015)). According to this procedure, the amount of HNO released from a pyrazolone derivative compound was determined by reacting the compound with the triarylphosphine TXPTS and monitoring the resulting aza-ylide formation.
The procedure for determining the amount of HNO released from certain compounds from Table 1 was as follows.
Tris(4,6-dimethyl-3-sulfanatophenyl)phosphine trisodium salt (TXPTS) was of reagent grade and used without further purification. Synthetic TXPTS aza-ylide was obtained through the amidation of TXPTS using hydroxylamine O-sulfonic acid in water (Armstrong et al., Org. Lett. 7:713-716 (2005)). All other materials were of reagent grade and used without further purification.
All ^1H NMR spectra were obtained in an adjusted-to pH 7.4 solution containing 0.25 M phosphate buffer, 0.2 mM of the metal chelator diethylenetriaminepentaacetic acid (“DTPAC”), and 10% D2O on a Bruker Avance 250 MHz FT-NMR spectrometer using a 1 second presaturation pulse to suppress the water signal. To a nitrogen-purged NMR solution (1.00 mL) containing TXPTS (3.3 mg, 5 mM) was added a pyrazolone derivative compound (10 μL of 100 mM in methanol-d4) to give 1 mM as the initial concentration of the pyrazolone derivative compound. The solution was briefly mixed, about 0.5 mL was transferred to a nitrogen-purged NMR tube and an initial ^1H NMR spectrum (time=0) was obtained. Thereafter, the sample was internally incubated at 37° C. and ^1H NMR spectra were collected at regular intervals for 8 hours.
The HNO donating pyrazolone derivative compound, by-product (e.g., (III) in Scheme 1), and TXPTS aza-ylide concentrations, determined from NMR spectra taken over 8 hours, were plotted as a function of time, and each data set was fitted to a single exponential function. The NMR half-lives for the disappearance of the HNO donating pyrazolone derivative compound and the appearance of by-product and TXPTS aza-ylide were determined from the respective plots. […] A control compound, compound 7 disclosed in WO 2013/059194, was also evaluated.

[2] = In vitro plasma stability, dog plasma; assay type: in vitro ADME; settings: male, pH 7.4, 5 μM, 37° C., sampling 0-360 minutes, read-out: T1/2 Dog
Procedure, shortened: (§1)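 Pooled plasma at pH 7.4 with sodium heparin or citrate anticoagulant; compound at 5 μM, 37° C with shaking, triplicate samples at 0–360 min. Quenched in acetonitrile/1% formic acid with internal standard; LC-MS/MS peak-area ratios without standard curve; T1/2 from percent remaining.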

[3] = In vitro plasma stability, rat plasma; assay type: in vitro ADME; settings: male, pH 7.4, 5 μM, 37° C., sampling 0-360 minutes, read-out: T1/2 Rat
Procedure, shortened: as §1

[4] = In vitro plasma stability, human plasma; assay type: in vitro ADME; settings: male, pH 7.4, 5 μM, 37° C., sampling 0-360 minutes, read-out: T1/2 Human
Procedure, shortened: as §1

[5] = Solid-state stability at 40° C. and 75% RH (purity by HPLC); assay type: physicochemical; settings: solid powder; for Solid-state stability, purity by HPLC, 0 Months: 0 Months (initial); for Solid-state stability, purity by HPLC, 1 Month: in % (unit assumed)
Method: Solid, powdered samples of certain compounds from Table 1 were sealed in double polyethylene bags and stored at 40° C., 75% relative humidity (“RH”) for up to 3 months. A control compound, compound 7 disclosed in WO 2013/059194, was also tested. Initially and after 1 month, 2 months, and 3 months of storage, the samples were analyzed for purity, as determined by high performance liquid chromatography (“HPLC”). Additionally, certain compounds from Table 1 were admixed at a level of 50% by weight with one of the following excipients before stability testing: lactose, microcrystalline cellulose, or croscarmellose sodium. The resulting admixtures were also stored as described above then analyzed for purity of the pyrazolone derivative component, as determined by HPLC. The HPLC apparatus comprised a quaternary or binary pump, an auto sampler, a thermostated column compartment, and a UV/visible detector. The HPLC measurement conditions were as follows: • Column: Zorbax Eclipse XDB-C18, 2.1×50 mm, 3.5 μm (Agilent Technologies, Santa Clara, Calif.) • Injection Volume: 2 μL • Detection Wavelength: 220 nm • Mobile Phase A: 0.1% by volume formic acid (“FA”) in water • Mobile Phase B: 0.1% by volume FA in acetonitrile • Diluent: About 0.2 mg sample/mL acetonitrile • Gradient:
• Flow Rate: 0.8 mL/min • Column Temperature: 25° C.

normal beagle dogs = assay: Pharmacodynamic activity: systolic blood pressure decrease in telemetered dogs after oral dose; assay type: in vivo, dog; settings: beagle dogs (n=3), single oral dose 30 mg/kg in PEG300, first 2 hr post-dose relative to baseline SBP
Method: The effect of certain compounds from Table 1 on blood pressure in freely moving telemetered normal beagle dogs (n=3) after single oral doses was evaluated. The animals were surgically implanted with a pressure transducer equipped telemetry transmitter. The transmitter assembly was secured internally and a fluid-filled catheter was placed into the abdominal aorta to allow for collection of cardiovascular data. To evaluate cardiovascular effects, 3 dogs were given single oral doses of a compound from Table 1 (100% PEG300 in gelatin capsules) at a concentration of 100 mg/mL and at doses of 30 mg/kg. Systemic blood pressure and heart rate were evaluated continuously for 2 hr before and for 24 hr after dosing (results not shown). To compare the pharmacodynamic activity for all tested compounds, the mean systolic blood pressure (SBP) decrease during the first 2 hr post-dose was determined relative to the baseline SBP (30-120 min pre-dose) (Table 6).

SMILES	half-life at 1 mM [1] [h]	half-life at 5 μM [2] [h]	half-life at 5 μM [3] [h]	half-life at 5 μM [4] [h]	Solid-state stability, purity by HPLC, 0 Months [5] [%]	Solid-state stability, purity by HPLC, 1 Month [5]	Solid-state stability, purity by HPLC, 2 Months [5] [%]	Solid-state stability, purity by HPLC, 3 Months [5] [%]	Mean SBP decrease (normal beagle dogs) [mmHg]
CN1N=C(c2ccccc2F)C(C)(NO)C1=O (centres unmarked) [Compound 3, 5-(2-fluorophenyl)-4-(hydroxyamino)-2,4-dimethyl-2,4-dihydro-3H-pyrazol-3-one]	3.95	0.467	0.617	0.533	–	–	–	–	28
CC1=NN(C)C(=O)C1(NO)c1ccccc1 (centres unmarked) [Compound 6, 4-(hydroxyamino)-2,5-dimethyl-4-phenyl-2,4-dihydro-3H-pyrazol-3-one]	0.567	0.2	–	0.633	99.8	<10	–	–	22

Further lines, with some results ahead:

half-life at 1 mM [1] [h]	half-life at 5 μM [2] [h]	half-life at 5 μM [3] [h]	half-life at 5 μM [4] [h]	Solid-state stability, purity by HPLC, 0 Months [5] [%]	Solid-state stability, purity by HPLC, 1 Month [5]	Solid-state stability, purity by HPLC, 2 Months [5] [%]	Solid-state stability, purity by HPLC, 3 Months [5] [%]	SMILES	Mean SBP decrease (normal beagle dogs) [mmHg]
13	2.47	1.33	1.4	100	99.2	99.8	99.8	CN1N=C(c2ccc(Cl)cc2)C(C)(NO)C1=O (centres unmarked) [Compound 1, 5-(4-chlorophenyl)-4-(hydroxyamino)-2,4-dimethyl-2,4-dihydro-3H-pyrazol-3-one]	3
0.833	1.2	1.02	0.867	91.2	<10	< 10	< 10	CN1N=C(c2ccccc2Cl)C(C)(NO)C1=O (centres unmarked) [Compound 2, 5-(2-chlorophenyl)-4-(hydroxyamino)-2,4-dimethyl-2,4-ddihydro-3H-pyrazol-3-one]	2
6.32	1.1	0.667	0.817	99.3	97.0 and 61.0	68	–	CN1N=C(c2ccc(S(C)(=O)=O)cc2)C(C)(NO)C1=O (centres unmarked) [Compound 14, 4-(hydroxyamino)-2,4-dimethyl-5-(4-(methylsulfonyl)phenyl)-2,4-dihydro-3H-pyrazol-3-one]	13
16.8	1.67	1.12	1.33	98.3	<10	–	–	CN1N=C(c2ccccc2)C(C)(NO)C1=O (centres unmarked) [Compound 15, 4-(hydroxyamino)-2,4-dimethyl-5-phenyl-2,4-dihydro-3H-pyrazol-3-one]	31
